Data as given in the NIST ThermoML archive (doi:10.1016/j.jct.2010.01.004).
Numbers after ± are expanded uncertainties.

Columns and labels:
[1] = activity coefficient (dimensionless); of the first substance listed, at infinite dilution; xn = mol fraction of the nth substance listed; conditions: Liquid, Chromatography, x1 = 0
[2] = 308.15 K; 101.33 kPa; Liquid; Vibrating tube method

mass density [2] | Compound | activity coefficient ([1]; 298.15 K) | activity coefficient ([1]; 308.15 K) | activity coefficient ([1]; 318.15 K) | activity coefficient ([1]; 328.15 K) | activity coefficient ([1]; 338.15 K) | activity coefficient ([1]; 348.15 K) | activity coefficient ([1]; 358.15 K) | activity coefficient ([1]; 368.15 K)
 | Cc1ccccc1C [1,2-dimethylbenzene] + CC(C)C[P+](C)(CC(C)C)CC(C)C.Cc1ccc(S(=O)(=O)[O-])cc1 | 2.31 ± 0.16 | 2.21 ± 0.15 | 2.18 ± 0.15 | 2.1 ± 0.14 | 2.06 ± 0.14 | 2.04 ± 0.14 | 2.03 ± 0.14 | 2.01 ± 0.14
 | Cc1cccc(C)c1 [1,3-dimethylbenzene] + CC(C)C[P+](C)(CC(C)C)CC(C)C.Cc1ccc(S(=O)(=O)[O-])cc1 | 2.68 ± 0.18 | 2.48 ± 0.17 | 2.44 ± 0.17 | 2.33 ± 0.16 | 2.36 ± 0.16 | 2.28 ± 0.16 | 2.27 ± 0.15 | 2.23 ± 0.15
 | Cc1ccc(C)cc1 [1,4-dimethylbenzene] + CC(C)C[P+](C)(CC(C)C)CC(C)C.Cc1ccc(S(=O)(=O)[O-])cc1 | 2.54 ± 0.17 | 2.44 ± 0.17 | 2.4 ± 0.16 | 2.23 ± 0.15 | 2.26 ± 0.15 | 2.23 ± 0.15 | 2.24 ± 0.15 | 2.21 ± 0.15
 | C=CCCCCC [1-heptene] + CC(C)C[P+](C)(CC(C)C)CC(C)C.Cc1ccc(S(=O)(=O)[O-])cc1 | 19.2 ± 1.3 | 14.6 ± 1 | 11.9 ± 0.8 | 9.62 ± 0.66 |  |  |  | 
 | C#CCCCCC [1-heptyne] + CC(C)C[P+](C)(CC(C)C)CC(C)C.Cc1ccc(S(=O)(=O)[O-])cc1 | 2.57 ± 0.17 | 2.62 ± 0.18 | 2.54 ± 0.17 | 2.54 ± 0.17 |  |  |  | 
 | C#CCCCC [1-hexyne] + CC(C)C[P+](C)(CC(C)C)CC(C)C.Cc1ccc(S(=O)(=O)[O-])cc1 | 2.69 ± 0.18 | 2.48 ± 0.17 | 2.32 ± 0.16 | 2.17 ± 0.15 |  |  |  | 
 | C#CCCCCCC [1-octyne] + CC(C)C[P+](C)(CC(C)C)CC(C)C.Cc1ccc(S(=O)(=O)[O-])cc1 | 3.19 ± 0.22 | 3.08 ± 0.21 | 3.06 ± 0.21 | 3.04 ± 0.21 |  |  |  | 
 | C=CCCC [1-pentene] + CC(C)C[P+](C)(CC(C)C)CC(C)C.Cc1ccc(S(=O)(=O)[O-])cc1 | 30.5 ± 2.1 | 20.7 ± 1.4 | 14.5 ± 1 | 9.91 ± 0.68 |  |  |  | 
 | C#CCCC [1-pentyne] + CC(C)C[P+](C)(CC(C)C)CC(C)C.Cc1ccc(S(=O)(=O)[O-])cc1 | 3.01 ± 0.2 | 2.55 ± 0.17 | 2.24 ± 0.15 | 1.98 ± 0.13 |  |  |  | 
 | COC(C)(C)C [2-methoxy-2-methylpropane] + CC(C)C[P+](C)(CC(C)C)CC(C)C.Cc1ccc(S(=O)(=O)[O-])cc1 | 17.1 ± 1.2 | 11 ± 0.8 | 8.26 ± 0.56 | 5.68 ± 0.39 | 5 ± 0.34 | 4.57 ± 0.31 | 4.16 ± 0.28 | 
 | c1ccccc1 [benzene] + CC(C)C[P+](C)(CC(C)C)CC(C)C.Cc1ccc(S(=O)(=O)[O-])cc1 | 1.53 ± 0.1 | 1.42 ± 0.09 | 1.35 ± 0.09 | 1.28 ± 0.08 | 1.25 ± 0.08 | 1.21 ± 0.08 | 1.2 ± 0.08 | 1.18 ± 0.08
 | CCCCO [butan-1-ol] + CC(C)C[P+](C)(CC(C)C)CC(C)C.Cc1ccc(S(=O)(=O)[O-])cc1 |  |  | 0.322 ± 0.031 | 0.318 ± 0.031 | 0.319 ± 0.031 | 0.328 ± 0.032 | 0.33 ± 0.032 | 0.323 ± 0.032
 | C1CCCCCC1 [cycloheptane] + CC(C)C[P+](C)(CC(C)C)CC(C)C.Cc1ccc(S(=O)(=O)[O-])cc1 | 12.3 ± 0.8 | 9.79 ± 0.67 | 7.64 ± 0.52 | 6.55 ± 0.45 |  |  |  | 
 | C1CCCCC1 [cyclohexane] + CC(C)C[P+](C)(CC(C)C)CC(C)C.Cc1ccc(S(=O)(=O)[O-])cc1 | 22.5 ± 1.5 | 14.5 ± 1 | 10.5 ± 0.7 | 7.67 ± 0.52 |  |  |  | 
 | C1CCCCCCC1 [cyclooctane] + CC(C)C[P+](C)(CC(C)C)CC(C)C.Cc1ccc(S(=O)(=O)[O-])cc1 | 10.5 ± 0.7 | 8.54 ± 0.58 | 7.48 ± 0.51 | 6.67 ± 0.45 |  |  |  | 
 | C1CCCC1 [cyclopentane] + CC(C)C[P+](C)(CC(C)C)CC(C)C.Cc1ccc(S(=O)(=O)[O-])cc1 | 20.6 ± 1.4 | 13.5 ± 0.9 | 9.69 ± 0.66 | 6.79 ± 0.46 |  |  |  | 
 | CCCCCCCCCC [decane] + CC(C)C[P+](C)(CC(C)C)CC(C)C.Cc1ccc(S(=O)(=O)[O-])cc1 | 33.3 ± 2.3 | 29.2 ± 2 | 26 ± 1.8 | 23.6 ± 1.6 |  |  |  | 

mass density [2] | Compound | activity coefficient ([1]; 298.15 K) | activity coefficient ([1]; 308.15 K) | activity coefficient ([1]; 318.15 K) | activity coefficient ([1]; 328.15 K) | activity coefficient ([1]; 338.15 K) | activity coefficient ([1]; 348.15 K) | activity coefficient ([1]; 358.15 K) | activity coefficient ([1]; 368.15 K)
 | CCO [ethanol] + CC(C)C[P+](C)(CC(C)C)CC(C)C.Cc1ccc(S(=O)(=O)[O-])cc1 |  | 0.263 ± 0.03 | 0.259 ± 0.03 | 0.261 ± 0.03 | 0.262 ± 0.03 | 0.266 ± 0.03 | 0.268 ± 0.03 | 0.266 ± 0.03
 | CCc1ccccc1 [ethylbenzene] + CC(C)C[P+](C)(CC(C)C)CC(C)C.Cc1ccc(S(=O)(=O)[O-])cc1 | 2.51 ± 0.17 | 2.37 ± 0.16 | 2.33 ± 0.16 | 2.25 ± 0.15 | 2.2 ± 0.15 | 2.17 ± 0.15 | 2.16 ± 0.15 | 2.09 ± 0.14
 | CCCCCCC [heptane] + CC(C)C[P+](C)(CC(C)C)CC(C)C.Cc1ccc(S(=O)(=O)[O-])cc1 | 35.2 ± 2.4 | 26.4 ± 1.8 | 20.8 ± 1.4 | 16.1 ± 1.1 |  |  |  | 
 | C=CCCCC [hex-1-ene] + CC(C)C[P+](C)(CC(C)C)CC(C)C.Cc1ccc(S(=O)(=O)[O-])cc1 | 23.5 ± 1.6 | 16.5 ± 1.1 | 12.4 ± 0.8 | 9.35 ± 0.64 |  |  |  | 
 | CCCCCC [hexane] + CC(C)C[P+](C)(CC(C)C)CC(C)C.Cc1ccc(S(=O)(=O)[O-])cc1 | 48.8 ± 3.3 | 32.2 ± 2.2 | 23.3 ± 1.6 | 16.4 ± 1.1 |  |  |  | 
 | CO [methanol] + CC(C)C[P+](C)(CC(C)C)CC(C)C.Cc1ccc(S(=O)(=O)[O-])cc1 | 0.168 ± 0.029 | 0.164 ± 0.029 | 0.166 ± 0.029 | 0.167 ± 0.029 | 0.171 ± 0.029 | 0.175 ± 0.029 | 0.178 ± 0.029 | 0.179 ± 0.029
 | CCCCCCCCC [nonane] + CC(C)C[P+](C)(CC(C)C)CC(C)C.Cc1ccc(S(=O)(=O)[O-])cc1 | 26.8 ± 1.8 | 24.7 ± 1.7 | 21.6 ± 1.5 | 19.8 ± 1.4 |  |  |  | 
 | C=CCCCCCC [oct-1-ene] + CC(C)C[P+](C)(CC(C)C)CC(C)C.Cc1ccc(S(=O)(=O)[O-])cc1 | 16.6 ± 1.1 | 15 ± 1 | 12.2 ± 0.8 | 10.8 ± 0.74 |  |  |  | 
 | CCCCCCCC [octane] + CC(C)C[P+](C)(CC(C)C)CC(C)C.Cc1ccc(S(=O)(=O)[O-])cc1 | 30.7 ± 2.1 | 25.8 ± 1.8 | 20.6 ± 1.4 | 17.2 ± 1.2 |  |  |  | 
 | CCCCCO [pentan-1-ol] + CC(C)C[P+](C)(CC(C)C)CC(C)C.Cc1ccc(S(=O)(=O)[O-])cc1 |  |  |  |  | 0.34 ± 0.032 | 0.346 ± 0.032 | 0.354 ± 0.032 | 0.357 ± 0.033
 | CCCCC [pentane] + CC(C)C[P+](C)(CC(C)C)CC(C)C.Cc1ccc(S(=O)(=O)[O-])cc1 | 61.4 ± 4.2 | 41.5 ± 2.8 | 28.5 ± 2 | 18.5 ± 1.3 |  |  |  | 
 | CCCO [propan-1-ol] + CC(C)C[P+](C)(CC(C)C)CC(C)C.Cc1ccc(S(=O)(=O)[O-])cc1 |  | 0.278 ± 0.03 | 0.282 ± 0.03 | 0.28 ± 0.03 | 0.284 ± 0.03 | 0.287 ± 0.031 | 0.299 ± 0.031 | 0.287 ± 0.031
 | C1CCOC1 [tetrahydrofuran] + CC(C)C[P+](C)(CC(C)C)CC(C)C.Cc1ccc(S(=O)(=O)[O-])cc1 | 1.41 ± 0.09 | 1.31 ± 0.09 | 1.22 ± 0.08 | 1.12 ± 0.07 | 1.09 ± 0.07 | 1.05 ± 0.07 | 1.05 ± 0.07 | 
 | c1ccsc1 [thiophene] + CC(C)C[P+](C)(CC(C)C)CC(C)C.Cc1ccc(S(=O)(=O)[O-])cc1 | 0.901 ± 0.057 | 0.848 ± 0.054 | 0.843 ± 0.054 | 0.818 ± 0.053 | 0.812 ± 0.053 | 0.805 ± 0.052 | 0.804 ± 0.052 | 
 | Cc1ccccc1 [toluene] + CC(C)C[P+](C)(CC(C)C)CC(C)C.Cc1ccc(S(=O)(=O)[O-])cc1 | 1.94 ± 0.13 | 1.81 ± 0.12 | 1.78 ± 0.12 | 1.69 ± 0.11 | 1.66 ± 0.11 | 1.65 ± 0.11 | 1.64 ± 0.11 | 1.61 ± 0.11
1061 ± 3 kg/m3 | CC(C)C[P+](C)(CC(C)C)CC(C)C.Cc1ccc(S(=O)(=O)[O-])cc1 [triisobutylmethylphosphonium p-toluenesulfonate] |  |  |  |  |  |  |  | 
 | O [water] + CC(C)C[P+](C)(CC(C)C)CC(C)C.Cc1ccc(S(=O)(=O)[O-])cc1 |  |  | 0.585 ± 0.041 | 0.552 ± 0.04 | 0.534 ± 0.039 | 0.524 ± 0.039 | 0.492 ± 0.037 | 0.477 ± 0.037
